{"source": "paper PMC9319560", "about": "(Viruses, 2022)", "key": {"West Nile virus (WNV) [1]": {"test_system": "West Nile virus (WNV)", "assay": "WNV RNA quantification by RT-qPCR in infected human primary keratinocytes", "format": "cell-based", "conditions": "NHEK, WNV MOI 0.1, 24 h; for viral load in the cell monolayers: peptide 1 or 10 µg/mL added 1 h before infection, versus untreated; for effect on WNV replication in human primary keratinocytes: peptide 1 or 10 µg/mL, viral load in monolayer and supernatant by RT-qPCR"}, "viperin (RSAD2)": {"test_system": "viperin (RSAD2)", "assay": "Viperin", "format": "cell-based, human", "conditions": "NHEK, WNV MOI 0.1, 48 h, immunofluorescence, 3 independent experiments"}, "[2]": {"test_system": "human primary keratinocytes (NHEK) infected by WNV", "assay": "Inflammatory marker mRNA expression in NHEK infected with WNV, RT-qPCR", "format": "cell-based", "conditions": "WNV MOI 0.1, 24 h, 1 or 10 µg/mL peptide, versus WNV alone, similar trend, fold changes less marked, 5 independent experiments"}, "West Nile virus (WNV) [3]": {"test_system": "West Nile virus (WNV)", "conditions": "for reduction in the viral titer (factor): WNV inoculum 10^5.27 TCID50/mL pre-incubated 1 h at 37 °C (legend: 2 h), residual titer on Vero cells, versus WNV incubated alone, 5 independent experiments"}, "viral envelope": {"test_system": "viral envelope", "conditions": "previous studies; cited from earlier work"}, "[4]": {"test_system": "normal human epidermal keratinocytes (NHEK)", "assay": "LDH release assay on NHEK", "format": "cell-based", "conditions": "concentrations up to 10 µg/mL (1 to 20 µg/mL tested), 48 h per b34/b35 (24 h per b9), compared with non-treated cells, mean of at least 3 independent experiments"}, "[5]": {"test_system": "normal human epidermal keratinocytes (NHEK)", "assay": "XTT cell viability assay on NHEK", "format": "cell-based", "conditions": "concentrations up to 10 µg/mL (1 to 20 µg/mL tested), 48 h incubation, compared with non-treated cells, mean of at least 3 independent experiments"}, "[6]": {"test_system": "human primary keratinocytes (NHEK)", "format": "cell-based", "conditions": "3 h, RT-qPCR; for pro-inflammatory effects of the peptide alone (mRNA of inflammatory markers): peptide alone 0.1, 1 and 10 µg/mL, 6 independent experiments (Figure S1)"}, "[7]": {"test_system": "pro-inflammatory cytokine release", "conditions": "cell-specific and concentration-dependent; cell supernatant; cited from earlier work"}, "[8]": {"test_system": "human primary keratinocytes (NHEK)", "assay": "Inflammatory marker mRNA expression in NHEK stimulated with poly(I:C), RT-qPCR", "format": "cell-based", "conditions": "NHEK stimulated with 0.1 µg/mL poly(I:C) alone, 3 h"}, "DENV": {"test_system": "DENV", "conditions": "pretreatment by 30 µg/mL of peptide; cited from earlier work"}, "[9]": {"test_system": "human immunodeficiency virus", "conditions": "concentration-dependent antiviral effect against human immunodeficiency virus; cited from earlier work"}, "[10]": {"conditions": "RT-qPCR, 5 independent experiments"}, "[11]": {"conditions": "1 µg/mL peptide, versus WNV alone, p < 0.05"}, "[12]": {"conditions": "whatever the concentration of the peptide (1 or 10 µg/mL)"}}, "note": "Entries after “also recorded” stand apart in the source; their conditions may differ. Read-outs that look alike come from different tables or passages of the source. No end group written: not given here."}
{"substance": "LL-37", "values": [{"measurement": "decrease of viral RNA in the cell supernatant", "setting": "West Nile virus (WNV) [1]; 10 µg/mL peptide added 1 h before infection, RT-qPCR, versus untreated cells, 5 independent experiments, p < 0.05", "result": 5.5, "unit": "fold"}, {"measurement": "viral load in the cell monolayers", "setting": "West Nile virus (WNV) [1]; [10]", "result": "No significant difference"}, {"measurement": "effect on WNV replication in human primary keratinocytes", "setting": "West Nile virus (WNV) [1]", "result": "inhibits WNV replication"}, {"measurement": "RSAD2 protein expression", "setting": "viperin (RSAD2); [11]", "result": "significantly increased"}, {"measurement": "RSAD2 protein expression", "setting": "viperin (RSAD2); [12]", "result": "enhanced"}, {"measurement": "expression of ISGs and inflammatory markers (mRNA) during WNV infection", "setting": "[2]", "result": "not significant"}, {"measurement": "reduction in the viral titer (factor)", "setting": "West Nile virus (WNV) [3]; 1 µg/mL peptide", "result": 14}, {"measurement": "reduction in the viral titer (factor)", "setting": "West Nile virus (WNV) [3]; 10 µg/mL peptide", "result": 95}, {"measurement": "reduction in the viral infectious titer", "setting": "West Nile virus (WNV) [3]; WNV strain incubated with peptide, concentration not given", "result": 2, "unit": "log10"}, {"measurement": "concentration from which degradation of the viral envelope was observed", "setting": "viral envelope", "result": "≥ 10", "unit": "µg/mL"}, {"measurement": "keratinocyte viability (LDH release)", "setting": "[4]", "result": "greater than or equal to 90%"}, {"measurement": "keratinocyte viability (XTT)", "setting": "[5]", "result": "greater than or equal to 90%"}, {"measurement": "pro-inflammatory effects of the peptide alone (mRNA of inflammatory markers)", "setting": "[6]", "result": "no significant pro-inflammatory effects"}, {"measurement": "concentration from which decreased pro-inflammatory cytokine release was seen", "setting": "[7]", "result": "≥ 25", "unit": "µg/mL"}]}
{"substance": "poly(I:C)", "values": [{"measurement": "inflammatory response of NHEK", "setting": "[8]", "result": "elicited an inflammatory response"}]}
{"substance": "hBD-3 (GIINTLQKYYCRVRGGRCAVLSCLPKEEQIGKCSTRGRKCCRRKK; ends and bridges not checked; cysteine pairing not given here; UniProt P81534 23-67, looked up) [type 3 human β-defensin, skin antimicrobial peptide; purchased from PeproTech]", "values": [{"measurement": "viral load in the cell monolayers", "setting": "West Nile virus (WNV) [1]; [10]", "result": "No significant difference"}, {"measurement": "effect on WNV replication in human primary keratinocytes", "setting": "West Nile virus (WNV) [1]", "result": "does not seem to have any effect; also recorded: not reduced"}, {"measurement": "RSAD2 protein expression", "setting": "viperin (RSAD2); [11]", "result": "significantly increased"}, {"measurement": "RSAD2 protein expression", "setting": "viperin (RSAD2); [12]", "result": "enhanced"}, {"measurement": "keratinocyte viability (LDH release)", "setting": "[4]", "result": "greater than or equal to 90%"}, {"measurement": "DENV titer", "setting": "DENV", "result": "did not result in a significant decrease"}, {"measurement": "keratinocyte viability (XTT)", "setting": "[5]", "result": "greater than or equal to 90%"}, {"measurement": "CXCL-8 mRNA expression, peptide alone", "setting": "[6]; 10 µg/mL peptide alone, p < 0.05 (Figure S1)", "result": "notable exception"}, {"measurement": "pro-inflammatory effects of the peptide alone (mRNA of inflammatory markers)", "setting": "[6]", "result": "no significant pro-inflammatory effects"}, {"measurement": "concentration at which the antiviral effect is significant", "setting": "[9]", "result": "greater than 25 µg/mL"}]}
